Measurements from patent US20140329863A1 (priority 2011, published 2014).

Key:
Format in all cases: cell-based, human
PrP^C in T98G cells = test system: PrP^C in T98G cells
PrP^C in IMR32 cells = test system: PrP^C in IMR32 cells
T98G cells = test: cells; settings: calcein, T98G cells
IMR32 cells = test system: IMR32 cells
Further: test concentration or dose not given here.

Compound	% Inhibition: SPC (T98G) (PrP^C in T98G cells)	% Inhibition: SPC (IMR32) (PrP^C in IMR32 cells)	% Inhibition: Calcein (T98G) (T98G cells) [%]	% Inhibition: Calcein (IMR32) (IMR32 cells) [%]
CCc1ccc(C2C(C#N)=C(N)Oc3cc(N(C)C)ccc32)cc1 (stereo not shown) [IND-0020681]	MW: 319.4 % Inhibition: SPC (IMR32): 48 Calcein: 39 SPC (T98G): 43 Calcein: 21	MW: 319.4 % Inhibition: SPC (IMR32): 48 Calcein: 39 SPC (T98G): 43 Calcein: 21	21	39
COc1ccccc1C(=O)N1CCN(c2cccc(Cl)c2)CC1 [IND-0021750]	MW: 330.8 % Inhibition: SPC (IMR32): 44 Calcein: 25 SPC (T98G): 52 Calcein: 21	MW: 330.8 % Inhibition: SPC (IMR32): 44 Calcein: 25 SPC (T98G): 52 Calcein: 21	21	25
Cc1cccc(Nc2nc(-c3ccncc3)cs2)c1 [IND-0022317]	MW: 267.4 % Inhibition: SPC (IMR32): 87 Calcein: 35 SPC (T98G): 65 Calcein: 5	MW: 267.4 % Inhibition: SPC (IMR32): 87 Calcein: 35 SPC (T98G): 65 Calcein: 5	5	35
Cc1cccc(N2CCN(C(=O)c3ccc4c(c3)OCO4)CC2)c1C [IND-0023025]	MW: 338.4 % Inhibition: SPC (IMR32): 34 Calcein: 15 SPC (T98G): 34 Calcein: 26	MW: 338.4 % Inhibition: SPC (IMR32): 34 Calcein: 15 SPC (T98G): 34 Calcein: 26	26	15
COc1ccc(C(NC(C)=O)c2ccc3cccnc3c2O)cc1 (stereo not shown) [IND-0058521]	MW: 322.4 % Inhibition: SPC (IMR32): 56 Calcein: 17 SPC (T98G): 49 Calcein: 3	MW: 322.4 % Inhibition: SPC (IMR32): 56 Calcein: 17 SPC (T98G): 49 Calcein: 3	3	17
CCS(=O)(=O)c1ncc(Cl)c(C(=O)Nc2ccccc2C)n1 [IND-0081396]	MW: 339.8 % Inhibition: SPC (IMR32): 91 Calcein: 15 SPC (T98G): −5 Calcein: −8	MW: 339.8 % Inhibition: SPC (IMR32): 91 Calcein: 15 SPC (T98G): −5 Calcein: −8	−8	15
CCS(=O)(=O)c1ncc(Cl)c(C(=O)Nc2ccc(F)cc2)n1 [IND-0081737]	MW: 343.8 % Inhibition: SPC (IMR32): 41 Calcein: 18 SPC (T98G): −10 Calcein: −4	MW: 343.8 % Inhibition: SPC (IMR32): 41 Calcein: 18 SPC (T98G): −10 Calcein: −4	−4	18
N#Cc1c(NC(=O)CCc2cccs2)sc2c1CCCC2 [IND-0082865]	MW: 316.4 % Inhibition: SPC (IMR32): 60 Calcein: 37 SPC (T98G): 51 Calcein: 17	MW: 316.4 % Inhibition: SPC (IMR32): 60 Calcein: 37 SPC (T98G): 51 Calcein: 17	17	37
COc1ccc(C(=O)NCc2cc(C)nc3ccccc23)cc1 [IND-0086056]	MW: 306.4 % Inhibition: SPC (IMR32): 45 Calcein: 18 SPC (T98G): 49 Calcein: 20	MW: 306.4 % Inhibition: SPC (IMR32): 45 Calcein: 18 SPC (T98G): 49 Calcein: 20	20	18
CC(C)c1ccc(NC(=O)Nc2cnccn2)cc1 [IND-0088907]	MW: 256.3 % Inhibition: SPC (IMR32): 4 Calcein: 9 SPC (T98G): 46 Calcein: 27	MW: 256.3 % Inhibition: SPC (IMR32): 4 Calcein: 9 SPC (T98G): 46 Calcein: 27	27	9
